In PubChem BioAssay AID248 (DTP/NCI, 2004):
“And” between values parts separate entries of the source, which are not always exact repeats. Equal entries are not always repeated. Toxic doses and inconclusive results are not listed. No stated cut-off is given here; in the data, active means T/C of 150% or more; inactive means T/C below 125%.

Tested on: L1210 leukemia ip in BDF1 mice, survival T/C
Assay: NCI In Vivo Anticancer Drug Screen. Data for tumor model L1210 Leukemia (intraperitoneal) in B6D2F1 (BDF1) mice
Conditions: endpoint: mean survival time, higher = longer survival
Method in brief: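 Read-out is survival time, reported as the treated-group measurement over the vehicle-control measurement.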

[1] = dose: 100.0 mg/kg/injection, schedule: Q01DX001 (ip), vehicle: carboxymethylcellulose (CMC)
[2] = dose: 200.0 mg/kg/injection, schedule: Q01DX001 (ip), vehicle: carboxymethylcellulose (CMC)
[3] = dose: 400.0 mg/kg/injection, schedule: Q01DX001 (ip), vehicle: carboxymethylcellulose (CMC)
[4] = dose: 50.0 mg/kg/injection, schedule: Q01DX009 (ip), vehicle: Klucel (hydroxypropylcellulose) (HPC)
[5] = dose: 100.0 mg/kg/injection, schedule: Q01DX009 (ip), vehicle: Klucel (hydroxypropylcellulose) (HPC)
[6] = dose: 50.0 mg/kg/injection, schedule: Q01DX001 (ip), vehicle: saline
[7] = dose: 100.0 mg/kg/injection, schedule: Q01DX001 (ip), vehicle: saline
[8] = dose: 200.0 mg/kg/injection, schedule: Q01DX001 (ip), vehicle: saline
[9] = dose: 400.0 mg/kg/injection, schedule: Q01DX001 (ip), vehicle: saline
[10] = dose: 100.0 mg/kg/injection, schedule: Q04DX003 (ip), vehicle: Klucel (hydroxypropylcellulose) (HPC)
[11] = dose: 200.0 mg/kg/injection, schedule: Q04DX003 (ip), vehicle: Klucel (hydroxypropylcellulose) (HPC)
[12] = dose: 400.0 mg/kg/injection, schedule: Q04DX003 (ip), vehicle: Klucel (hydroxypropylcellulose) (HPC)
[13] = dose: 50.0 mg/kg/injection, schedule: Q04DX002 (ip), vehicle: Klucel (hydroxypropylcellulose) (HPC)
[14] = dose: 100.0 mg/kg/injection, schedule: Q04DX002 (ip), vehicle: Klucel (hydroxypropylcellulose) (HPC)

Measured: T/C

O=C(CCCCCCCCC(=O)Nc1cccc(C2=NCCN2)c1)Nc1cccc(C2=NCCN2)c1
inactive: dose: 2.5 mg/kg/injection, schedule: Q01DX Z (ip), vehicle: saline 95 % of control | dose: 5.0 mg/kg/injection, schedule: Q01DX Z (ip), vehicle: saline 91 % of control | dose: 10.0 mg/kg/injection, schedule: Q01DX Z (ip), vehicle: saline 91 % of control

O=C(NCCCl)Nc1ccc(Br)cc1
inactive: [1] 101 % of control | [2] 98 % of control | [3] 115 % of control

CC1(C2C3OC(=O)C2C2(O)CC4OC45C(=O)OC3C25C)CO1 (stereo unspecified)
inactive: dose: 25.0 mg/kg/injection, schedule: Q01DX009 (ip), vehicle: Klucel (hydroxypropylcellulose) (HPC) 92 % of control | [4] 104 % of control | [5] 95 % of control

O=C(O)c1c(Cl)c([N+](=O)[O-])cc([N+](=O)[O-])c1Cl
inactive: dose: 50.0 mg/kg/injection, schedule: Q01DX009 (ip), vehicle: saline 92 % of control | dose: 100.0 mg/kg/injection, schedule: Q01DX009 (ip), vehicle: saline 92 % of control | dose: 100.0 mg/kg/injection, schedule: Q04DX003 (ip), vehicle: saline 103 % of control | dose: 200.0 mg/kg/injection, schedule: Q01DX009 (ip), vehicle: saline 92 % of control | dose: 200.0 mg/kg/injection, schedule: Q04DX003 (ip), vehicle: saline 99 % of control

O=C(Nc1cccc(C2=NCCN2)c1)c1ccc(N=Nc2ccc(C(=O)Nc3cccc(C4=NCCN4)c3)cc2)cc1
inactive: dose: 93.0 mg/kg/injection, schedule: Q01DX Z (ip), vehicle: water 93 % of control | dose: 186.0 mg/kg/injection, schedule: Q01DX Z (ip), vehicle: water 100 % of control

O=C(CC(c1ccccc1)N1CCCCC1)c1ccccc1 (stereo unspecified)
inactive: [6] 97 % of control | [7] 100 % of control | [8] 94 % of control | [9] 97 % of control

O=[N+]([O-])c1ncn(C2OC(CO)C(O)C2O)c1Br (stereo unspecified)
inactive: [6] 98 % of control | [7] 102 % of control | [8] 102 % of control | [9] 104 % of control

Cc1ccccc1N=Cc1cc(Cl)ccc1O
inactive: dose: 100.0 mg/kg/injection, schedule: Q01DX001 (ip), vehicle: Klucel (hydroxypropylcellulose) (HPC) 97 % of control | [10] 88 % of control | dose: 200.0 mg/kg/injection, schedule: Q01DX001 (ip), vehicle: Klucel (hydroxypropylcellulose) (HPC) 95 % of control | [11] 97 % of control | dose: 400.0 mg/kg/injection, schedule: Q01DX001 (ip), vehicle: Klucel (hydroxypropylcellulose) (HPC) 93 % of control | [12] 101 % of control

Nc1c(Br)cc2c(c1Br)C(=O)c1ccccc1-2
inactive: [1] 98 % of control | [2] 109 % of control | [3] 102 % of control

O=C(c1ccccc1)C1C(c2ccccc2)N1C1CCCCC1 (stereo unspecified)
inactive: [4] 95 % of control | [5] 97 % of control and 103 % of control | [10] 96 % of control and 100 % of control | dose: 200.0 mg/kg/injection, schedule: Q01DX009 (ip), vehicle: Klucel (hydroxypropylcellulose) (HPC) 95 % of control and 89 % of control | [11] 93 % of control and 88 % of control | dose: 400.0 mg/kg/injection, schedule: Q01DX009 (ip), vehicle: Klucel (hydroxypropylcellulose) (HPC) 90 % of control and 91 % of control | [12] 95 % of control and 100 % of control

CCC(C)(C)C(=O)OCc1ccccc1
inactive: [13] 105 % of control | [14] 94 % of control | dose: 200.0 mg/kg/injection, schedule: Q04DX002 (ip), vehicle: Klucel (hydroxypropylcellulose) (HPC) 94 % of control and 111 % of control | dose: 400.0 mg/kg/injection, schedule: Q04DX002 (ip), vehicle: Klucel (hydroxypropylcellulose) (HPC) 103 % of control

CCOC(=O)Cc1cnc(SC)nc1N
inactive: [10] 95 % of control | [11] 94 % of control | [12] 87 % of control

Cc1c(C)c2c(Cl)c3ccccc3nc2c2ccccc12
inactive: dose: 50.0 mg/kg/injection, schedule: Q04DX003 (ip), vehicle: Klucel (hydroxypropylcellulose) (HPC) 102 % of control | [10] 100 % of control | [11] 112 % of control | [12] 100 % of control

CC(SC(C)C(=O)NN=C1CCSCC1)C(=O)NN=C1CCSCC1 (stereo unspecified)
inactive: dose: 55.0 mg/kg/injection, schedule: Q01DX Z (ip), vehicle: methylcellulose (MC) 104 % of control | dose: 83.0 mg/kg/injection, schedule: Q01DX Z (ip), vehicle: methylcellulose (MC) 91 % of control | dose: 125.0 mg/kg/injection, schedule: Q01DX Z (ip), vehicle: methylcellulose (MC) 114 % of control

O=C(OC(CC[P+](c1ccccc1)(c1ccccc1)c1ccccc1)(C(=O)c1ccccc1)c1ccccc1)c1ccccc1 (stereo unspecified)
inactive: dose: 3.0 mg/kg/injection, schedule: Q04DX003 (ip), vehicle: saline 98 % of control | dose: 6.0 mg/kg/injection, schedule: Q04DX003 (ip), vehicle: saline 103 % of control | dose: 12.0 mg/kg/injection, schedule: Q04DX003 (ip), vehicle: saline 94 % of control | dose: 15.0 mg/kg/injection, schedule: Q01DX001 (ip), vehicle: carboxymethylcellulose (CMC) 90 % of control | dose: 30.0 mg/kg/injection, schedule: Q01DX001 (ip), vehicle: carboxymethylcellulose (CMC) 98 % of control | dose: 60.0 mg/kg/injection, schedule: Q01DX001 (ip), vehicle: carboxymethylcellulose (CMC) 95 % of control | dose: 75.0 mg/kg/injection, schedule: Q01DX001 (ip), vehicle: carboxymethylcellulose (CMC) 88 % of control

CCCCCCCCC(=O)N1CCCC(C)C1 (stereo unspecified)
inactive: dose: 100.0 mg/kg/injection, schedule: Q04DX002 (ip), vehicle: saline 104 % of control | dose: 200.0 mg/kg/injection, schedule: Q04DX002 (ip), vehicle: saline 117 % of control | dose: 400.0 mg/kg/injection, schedule: Q04DX002 (ip), vehicle: saline 101 % of control

C=CCN(C)c1ccc(C(=O)OC)cc1
inactive: [1] 102 % of control | [2] 94 % of control | [3] 100 % of control

C(CC1CCCCC1)=C(CCC1CCCCC1)CCC1CCCCC1
inactive: dose: 100.0 mg/kg/injection, schedule: Q04DX003 (ip), vehicle: saline with Tween-80 103 % of control | dose: 200.0 mg/kg/injection, schedule: Q04DX003 (ip), vehicle: saline with Tween-80 105 % of control | dose: 400.0 mg/kg/injection, schedule: Q04DX003 (ip), vehicle: saline with Tween-80 100 % of control

CC1(C)C2=CCCC2CC/C1=N/NC(N)=O (stereo unspecified)
inactive: dose: 25.0 mg/kg/injection, schedule: Q04DX002 (ip), vehicle: Klucel (hydroxypropylcellulose) (HPC) 107 % of control | [13] 93 % of control | [14] 90 % of control

Cc1cc(Br)ccc1N
inactive: dose: 100.0 mg/kg/injection, schedule: Q01DX009 (ip), vehicle: saline with Tween-80 99 % of control | dose: 200.0 mg/kg/injection, schedule: Q01DX009 (ip), vehicle: saline with Tween-80 95 % of control | dose: 400.0 mg/kg/injection, schedule: Q01DX009 (ip), vehicle: saline with Tween-80 99 % of control

CCC1(Cc2ccccc2)C(=O)NC(=S)N(C)C1=O (stereo unspecified)
inactive: dose: 75.0 mg/kg/injection, schedule: Q01DX001 (ip), vehicle: saline 106 % of control

CC(=O)Nc1cc([N+](=O)[O-])ccc1OCc1ccccc1
inactive: [6] 92 % of control | [7] 91 % of control | [8] 88 % of control | [9] 97 % of control
